Data taken from patent US20260008784A1 (VASTHERA CO., LTD., priority 2022, published 2026).

Columns and labels:
[1] = system: NIH-3T3 cells; experiment: Intracellular H2O2-eliminating activity (CM-H2DCF-DA fluorescence); format: cell-based; settings: Mus musculus, NIH3T3, glucose oxidase, concentration at 50% reduction of intracellular H2O2
Experimental: The activity of test compounds in present invention to eliminate intracellular H2O2 was measured as follows. NIH-3T3 cells (ATCC) were seeded in a 35-mm culture dish at 2×10^5 cells/well. After culture for 24 hours, cells were serum-starved with phenol red free-basal DMEM containing 0.5% FBS for 6 h. Starved NIH 3T3 cells were pretreated with compounds diluted with phenol red free-basal DMEM at concentrations ([…]) for 30 min, followed by treatment with 20 mU of glucose oxidase (Gox) for 30 min. A reactive oxygen species-sensitive fluorescence dye, carboxymethyl-dichlorofluorescein-diacetate (CM-H2DCF-DA), which was prepared in 1 mM DMSO stock and diluted 500 times in phenol red free-basal DMEM, was added to the cells and incubated for 5 min. Then, cells were quickly rinsed with basal medium. Images were taken at excitation 497 nm/emission 518 nm settings using a fluorescence microscope. Three images at 10× magnification per sample were obtained, and fluorescence intensities from 30 or more individual cells per image were averaged.
The intracellular H2O2-eliminating activity of test compounds in present invention was measured using a live-cell imaging fluorescence probe (CM-HaDCF-DA). H2O2-eliminating activity was measured depending on ascending concentrations of the test compound and expressed as the percent of activity compared to the untreated control group. EC50 represents the concentration of test compound at 50% reduction of intracellular H2O2.

[2] = system: Tyr 1175 phosphorylation of VEGF receptor-2 (VEGFR2) in HAEC; experiment: Immunoblot of VEGF-mediated signaling in PrxII knock-down HAEC; format: cell-based, human; settings: for Effect on phosphorylation of Tyr 1175 on VEGFR2: HAECs depleted of PrxII expression, FIG. 5
[3] = system: human pulmonary artery smooth muscle cell (PASMC); experiment: PDGF-induced proliferation assay, PASMC (PrxII siRNA); format: cell-based; settings: for Degree of PASMC proliferation: PDGF-BB 25 ng/mL, percent of untreated control; for IC50: Homo sapiens, PASMC, 50% growth inhibition, PDGF-stimulated
[4] = system: human pulmonary artery endothelial cell (PAEC); experiment: VEGF-induced proliferation assay, PAEC (PrxII siRNA); format: cell-based; settings: for Degree of PAEC proliferation: VEGF-A 25 ng/mL, percent of untreated control; for EC50: Homo sapiens, Endothelial cell, effective concentration increasing cell proliferation by 50%, VEGF-stimulated
Experimental: HAECs and PAECs were transfected with a PrxII-specific siRNA using RNAi MAX transfection reagent according to manufacturer's protocol. After 24 hours, transfected cells (3,000 cells/well) were seeded in a 96-well culture plate. At 12 h after seeding, cells were serum-starved for additional 18 h in EBM basal medium containing 0.5% FBS. Test compounds were serially diluted with the same basal medium containing 0.5% FBS, added to the cells ([…]), and incubated for 2 h. After treatment, cells were placed in fresh EBM medium containing 0.5% FBS and VEGF-A (25 ng/mL) for growth factor stimulation and further cultured for 24 h.
The degree of cell proliferation was measured using the Cell Titer-GLO kit ([…]). Data are the percent of luminescence intensity averaged from three replicate wells versus that of untreated control group.
In human aortic endothelial cell (HAEC) and human pulmonary artery endothelial cell (PAEC) in which PrxII was knocked out by transfecting the PrxII siRNA, the ability of test compounds to augment the VEGF-induced proliferation of vascular endothelial cells was evaluated. In Table 7, the degree of proliferation in the compound-treated groups is expressed as percent of the degree of proliferation in untreated control group. The effective concentrations of test compounds increasing cell proliferation by 50% (EC50) is also listed.

SMILES | EC50 [1] | Effect on phosphorylation of Tyr 1175 on VEGFR2 [2] | Concentrations at which phosphorylation of Tyr 1175 on VEGFR2 is significantly reduced ([2]; HAECs, PrxII knock-down, FIG. 4) | Degree of PASMC proliferation ([3]; 2.5 nM) | Degree of PASMC proliferation ([3]; 5 nM) | Degree of PASMC proliferation ([3]; 10 nM) | Degree of PASMC proliferation ([3]; 25 nM) | Degree of PASMC proliferation ([3]; 50 nM) | Degree of PASMC proliferation ([3]; 100 nM) | IC50 [3] | Degree of PAEC proliferation ([4]; 2.5 nM) | Degree of PAEC proliferation ([4]; 5 nM) | Degree of PAEC proliferation ([4]; 10 nM) | Degree of PAEC proliferation ([4]; 25 nM) | Degree of PAEC proliferation ([4]; 50 nM) | Degree of PAEC proliferation ([4]; 100 nM) | EC50 [4]
CN1C(=O)C2(C)SSCC1C(=O)N2C (stereo not drawn) [Compound 1, 1,6,8-trimethyl-2,3-dithia-6,8-diazabicyclo[3.2.2]nonane-7,9-dione] | 8.25 nM | strongly abolish the phosphorylation | above 2.5 nM | 70.8% | 49.8% | 29.4% | 14.3% | 0.0% | 0.0% | 5.01 nM | 104.7% | 120.0% | 143.8% | 164.3% | 158.8% | 145.5% | 9.54 nM
CN1C(=O)C2CSSC1(C)C(=O)N2Cc1ccc2ccccc2n1 (stereo not drawn) [Compound 5, 1,8-dimethyl-6-(quinolin-2-ylmethyl)-2,3-dithia-6,8-diazabicyclo[3.2.2]nonane-7,9-dione] | 7.77 nM | strongly abolish the phosphorylation |  | 71.3% | 48.3% | 37.5% | 26.8% | 1.9% | 2.5% | 5.64 nM | 106.1% | 129.7% | 152.3% | 165.6% | 167.7% | 147.4% | 5.03 nM
O=C1C2CSSC3(COCCN13)C(=O)N2Cc1ccccc1 (stereo not drawn) [Compound 8, 12-benzyltetrahydro-5H,10H-4,10a-(epiminomethano)[1,4]oxazino[3,4-c][1,2,4]dithia zepine-5,11-dione] | 6.57 nM |  |  | 57.7% | 41.7% | 24.8% | 5.7% | 0.0% | 0.0% | 3.52 nM | 108.5% | 124.9% | 143.4% | 164.8% | 158.1% | 144.0% | 5.12 nM
CCN1C(=O)C2(C)SSCC1C(=O)N2CC (stereo not drawn) [Compound 20, 6,8-diethyl-1-methyl-2,3-dithia-6,8-diazabicyclo[3.2.2]nonane-7,9-dione] |  | strongly abolish the phosphorylation |  | 82.2% | 51.5% | 31.6% | 21.1% | 7.3% | 5.2% | 6.17 nM | 109.2% | 124.3% | 133.5% | 166.5% | 180.9% | 180.4% | 10.3 nM
